The values that follow come from ChEMBL document CHEMBL3044921, “Synthesis, characterization, and SAR studies of new (1H-indol-3-yl)alkyl-3-(1H-indol-3-yl)propanamide derivatives as possible antimicrobial and antitubercular agents” (2013).

Values after ≈ are worked out from the molar mass of the structure shown. A value given as a limit tells only on which side of the number the result lay.

This assay relates to Mycobacterium tuberculosis. Description: Antitubercular activity against multidrug-resistant Mycobacterium tuberculosis assessed as growth inhibition at 0.3125 to 5 ug/mL after 7 days by resazurin reduction test. The format is functional. As to conditions: 168 h. (Alamar Blue is a resazurin reagent that responds to reducing activity.)
Consider `Cn1cc(CCC(=O)NCc2c[nH]c3ccc(Cl)cc23)c2cc(Cl)ccc21`, for which the MIC worked out at 6.25 µg/mL (≈ 15.6 µM). Next, `Cn1cc(CCCNC(=O)CCc2cn(C)c3ccc(Cl)cc23)c2cc(Cl)ccc21`: 25 µg/mL (≈ 56.5 µM); `Cc1[nH]c2ccc(OC(F)(F)F)cc2c1CCCNC(=O)CCc1c[nH]c2ccc(Cl)cc12`: > 50 µg/mL.

Consider `Cc1c(CCCNC(=O)CCc2c[nH]c3ccc(Cl)cc23)c2cc(OC(F)(F)F)ccc2n1C`, for which the MIC was > 50 µg/mL. Next, `Cn1cc(CCC(=O)NCCCc2c[nH]c3ccc(OC(F)(F)F)cc23)c2cc(Cl)ccc21`: 6.25 µg/mL (≈ 13.1 µM). Take `Cc1c(CCCNC(=O)CCc2cn(C)c3ccc(Cl)cc23)c2cc(OC(F)(F)F)ccc2n1C`: the MIC was 1.25 µg/mL (≈ 2.47 µM). Turning to `Cn1cc(CCC(=O)NCCCc2c[nH]c3ccc(Cl)cc23)c2cc(Cl)ccc21`, the MIC came out at 2.5 µg/mL (≈ 5.84 µM). Next, `Cn1cc(CCCNC(=O)CCc2c[nH]c3ccc(Cl)cc23)c2cc(OC(F)(F)F)ccc21`: 12.5 µg/mL (≈ 26.2 µM); `O=C(CCc1c[nH]c2ccc(Cl)cc12)NCc1c[nH]c2ccc(OC(F)(F)F)cc12`: > 50 µg/mL.

On to `Cc1[nH]c2ccc(OC(F)(F)F)cc2c1CNC(=O)CCc1c[nH]c2ccc(Cl)cc12`, for which the MIC came out at 6.25 µg/mL (≈ 13.9 µM).

With `Cc1c(CNC(=O)CCc2c[nH]c3ccc(Cl)cc23)c2cc(OC(F)(F)F)ccc2n1C`, the MIC is > 50 µg/mL.

With `Cn1cc(CNC(=O)CCc2c[nH]c3ccc(Cl)cc23)c2cc(Cl)ccc21`, the MIC is > 50 µg/mL. Regarding `Cn1cc(CCC(=O)NCc2c[nH]c3ccc(OC(F)(F)F)cc23)c2cc(Cl)ccc21`, the MIC was determined as 6.25 µg/mL (≈ 13.9 µM).

As for `Cc1c(CNC(=O)CCc2cn(C)c3ccc(Cl)cc23)c2cc(OC(F)(F)F)ccc2n1C`, the MIC is > 50 µg/mL.

As for `Cn1cc(CCC(=O)NCc2cn(C)c3ccc(Cl)cc23)c2cc(Cl)ccc21`, the MIC is > 50 µg/mL. The same measure for `O=C(CCc1c[nH]c2ccc(Cl)cc12)NCc1c[nH]c2ccc(Cl)cc12`: 6.25 µg/mL (≈ 16.2 µM). In the case of `Cc1[nH]c2ccc(OC(F)(F)F)cc2c1CNC(=O)CCc1cn(C)c2ccc(Cl)cc12`, the MIC is > 50 µg/mL. On to `NNC(=O)c1ccncc1` [ISONIAZID], for which the MIC came out at 12.5 µg/mL (≈ 91.1 µM).

On to `CO[C@H]1/C=C/O[C@@]2(C)Oc3c(C)c(O)c4c(O)c(c(/C=N/N5CCN(C)CC5)c(O)c4c3C2=O)NC(=O)/C(C)=C\C=C\[C@H](C)[C@H](O)[C@@H](C)[C@@H](O)[C@@H](C)[C@H](OC(C)=O)[C@@H]1C` [RIFAMPIN], for which the MIC was found to be 25 µg/mL (≈ 30.4 µM).

In general, MIC refers to the smallest concentration in the dilution series that meets the test's criterion for growth inhibition.
